Data set [1] in a line: Solution test: time taken for complete dissolving in ethanol/water. Type of data set: physicochemical. Conditions: 5 g in 95 g ethanol/water (equal weight contents), 20° C., stirred, optical determination. The protocol:
The various rates of solution of a solids composition according to the invention according to Example 1a above and forms of I-menthol which are not according to the invention were compared.
For this, in each case 5 g I-menthol or 5 g of the I-menthol-containing solids composition according to the invention according to Example 1a were added to 95 g of a mixture, temperature-controlled at a constant 20° C., of equal weight contents of ethanol and water and the time taken for complete dissolving (optical determination) of the menthol and of the menthol-containing solids composition was determined.
The particular solution test was carried out in a glass beaker having a diameter of 5 cm and a filling height of 7 cm. The contents of the glass beaker were in each case stirred with a 4 cm long magnetic stirring fish at a magnetic stirrer speed of 4 revolutions per second during the solution test. The temperature was monitored with a Pt-100 thermometer, which was immersed 5 cm deep into the liquid, was placed at a distance of 1 cm from the glass beaker wall and simultaneously served as a baffle.
The size of the crystals here corresponded to the typical (commercially available) crystal geometry of natural I-menthol.

The nature of data set [2]: Storage test for caking or formation of lumps (optical and mechanical flowability check). Type of data set: physicochemical. The settings on record: storage times of more than three months. The procedure:
In this context, a solid menthol component consisting of bodies in the form of crystals or pressed pieces was employed. The menthol-containing solids composition according to the invention which was investigated remained convenient and reliable to handle and pourable, flowable and meterable over the entire observation period.
This menthol-containing solids composition was packed in a plastic bag in a cube-shaped box and stored at 20° C. (bulk height: 50 cm). Every 14 days, the composition according to the invention was investigated optically and mechanically for its flowability.
I-Menthol (25 kg) in the form of freshly prepared needle-shaped crystals (for the particle distribution, see Example 1) was initially introduced into a mixer and mixed briefly and intensively with various amounts of magnesium oxide (calculated average particle size: 12.8 nm, specific BET surface area: 130 m^2/g, compare Example 1a). The content of magnesium oxide (solid anticaking agent) in the total solids mixture was 0.5 wt. %, 1 wt. %, 2 wt. % or 4 wt. %. The original menthol crystals were comminuted by the mixing operation (compare Example 1a). The menthol-containing solids compositions having various contents of magnesium oxide were each packed in a plastic bag in a cube-shaped box and stored at 20° C. (bulk height: 50 cm). […]

The conditions of data set [3]: after 24 hours; cited from earlier work.

On to `CC(C)[C@@H]1CC[C@@H](C)C[C@H]1O` [Crystals of natural menthol, I-menthol], for which, in data set [1], the “Time taken for complete dissolving” value is 255 s.
For `CC(C)[C@@H]1CC[C@@H](C)C[C@H]1O` [Menthol crystals from Example 1, I-menthol], in data set [1], the “Time taken for complete dissolving” value turned out to be 170 s.
Take `CC(C)[C@@H]1CC[C@@H](C)C[C@H]1O` [Menthol crystals in lump form, obtained by storage of the me] [I-menthol]: the “Time taken for complete dissolving” value in data set [1] amounted to 280 s.
Take `CC1CCC(C(C)C)C(O)C1` (stereo not drawn) [Menthol]: the “Time taken for complete dissolving” value in data set [1] is 504 s. Moreover, the “formation of lumps and caking on storage” value in data set [2] is “gradually form lumps and cake”.
In the case of `CC(C)[C@@H]1CC[C@@H](C)C[C@H]1O` [flaked I-menthol, I-menthol], in data set [3], the “adhesion and formation of lumps on storage” value is “adhesion and formation of lumps”.
